Test results as given in patent US9708293B2, “N-(pyridin-2-yl)pyrimidin-4-amine derivatives containing a sulfone group” (BAYER PHARMA AKTIENGESELLSCHAFT, priority 2012, dated 2017).

Experiments:
Caco-2 permeation assay = format: in vitro ADME; conditions: human, pH 7.2, Caco-2, test compound 2 μM
Description: 4. Caco-2 Permeation Assay:
Caco-2 cells (purchased from DSMZ Braunschweig, Germany) were seeded at a density of 4.5×10^4 cells per well on 24 well insert plates, 0.4 μm pore size, and grown for 15 days in DMEM medium supplemented with 10% fetal bovine serum, 1% GlutaMAX (100x, GIBCO), 100 U/mL penicillin, 100 μg/mL streptomycin (GIBCO) and 1% non essential amino acids (100×). Cells were maintained at 37° C. in a humified 5% CO2 atmosphere. Medium was changed every 2-3 day. Before running the permeation assay, the culture medium was replaced by a FCS-free hepes-carbonate transport buffer (pH 7.2). For assessment of monolayer integrity the transepithelial electrical resistance (TEER) was measured. Test compounds were predissolved in DMSO and added either to the apical or basolateral compartment in final concentration of 2 μM in transport buffer. Before and after 2h incubation at 37° C. samples were taken from both compartments. Analysis of compound content was done after precipitation with methanol by LC/MS/MS analysis. Permeability (Papp) was calculated in the apical to basolateral (A →B) and basolateral to apical (B→A) directions. The apparent permeability was calculated using following equation: Papp=(Vr/Po)(1/S)(P2/t)
Where Vr is the volume of medium in the receiver chamber, Po is the measured peak area or height of the test drug in the donor chamber at t=o, S the surface area of the monolayer, P2 is the measured peak area of the test drug in the acceptor chamber after 2h of incubation, and t is the incubation time. The efflux ratio basolateral (B) to apical (A) was calculated by dividing the Papp B-A by the Papp A-B. In addition the compound recovery was calculated. The following reference compounds were used for the classification of the permeability class: Antipyrine, Pyrazosin, Verapamil, Fluvastatin, Cimetidine, Ranitidine, Atenolol, Sulfasalazine.

MOLM13 cells = experiment: Proliferation assay, MOLM-13; format: cell-based; conditions: Homo sapiens, 72-hour exposure, Cell Titre-Glo, read-out: Inhibition of MOLM13 cell proliferation IC50
Description: Non-adherent MOLM-13 human acute myeloid leukemia cells (DSMZ ACC 554) were seeded at a density of 5,000 cells/well in a 96-well multititer plate in 100 μL of growth medium supplemented 10% fetal calf serum. After 24 hours, cell viability of one plate (zero-point plate) was determined with the Cell Titre-Glo Luminescent Cell Viability Assay (Promega), while 50 μL of test compound containing medium was added to the wells of the other plates (final concentrations in the range of 0.001-10 μM and DMSO controls; the final concentration of the solvent dimethyl sulfoxide was 0.5%). Cell viability was assessed after 72-hour exposure with the Cell Titre-Glo Luminescent Cell Viability Assay (Promega). IC50 values (inhibitory concentration at 50% of maximal effect) were determined by means of a 4 parameter fit on measurement data which were normalized to vehicle (DMSO) treated cells (=100%) and measurement readings taken immediately before compound exposure (=0%).

Row | Papp A→B at 2 h, 2 μM (Caco-2 permeation assay; 2h incubation, apical to basolateral, read-out: Papp A-B (Mari)) [×10⁻⁶ cm/s] | Papp B→A at 2 h, 2 μM (Caco-2 permeation assay; 2h incubation, basolateral to apical, read-out: Papp B-A (Mari)) [×10⁻⁶ cm/s] | efflux ratio at 2 h, 2 μM (Caco-2 permeation assay; Papp B-A / Papp A-B) | IC50 (MOLM13 cells) [nM] | Compound
1 | 17.8 | 19.1 | 1.1 | – | COc1cc(F)ccc1-c1cc(Nc2cc(CS(C)(=O)=O)ccn2)ncn1 [Example 1, 6-(4-Fluoro-2-methoxyphenyl)-N-{4-[(methylsulfonyl)methyl]pyridin-2-yl}pyrimidin-4-amine]
2 | – | – | – | 18 | COc1cc(F)ccc1-c1cc(Nc2cc(CS(C)(=O)=O)cc(C(F)(F)F)n2)ncn1 [Example 3, 6-(4-Fluoro-2-methoxyphenyl)-N-{4-[(methylsulfonyl)methyl]-6-(trifluoromethyl)pyridin-2-yl}pyrimidin-4-amine]
